{"source": "patent US9493436B2", "about": "“Tyrosine phosphatase inhibitors and uses thereof to modulate the activity of enzymes involved in the pathology of Mycobacterium tuberculosis” (priority 2011, dated 2016)", "assay_in_all_cases": "biochemical", "format_in_all_cases": "biochemical", "key": {"Lyp": {"molecular_target": "T1, Lyp (Homo sapiens, UniProt Q9Y2R2)", "T1 sequence (Q9Y2R2 1-807)": "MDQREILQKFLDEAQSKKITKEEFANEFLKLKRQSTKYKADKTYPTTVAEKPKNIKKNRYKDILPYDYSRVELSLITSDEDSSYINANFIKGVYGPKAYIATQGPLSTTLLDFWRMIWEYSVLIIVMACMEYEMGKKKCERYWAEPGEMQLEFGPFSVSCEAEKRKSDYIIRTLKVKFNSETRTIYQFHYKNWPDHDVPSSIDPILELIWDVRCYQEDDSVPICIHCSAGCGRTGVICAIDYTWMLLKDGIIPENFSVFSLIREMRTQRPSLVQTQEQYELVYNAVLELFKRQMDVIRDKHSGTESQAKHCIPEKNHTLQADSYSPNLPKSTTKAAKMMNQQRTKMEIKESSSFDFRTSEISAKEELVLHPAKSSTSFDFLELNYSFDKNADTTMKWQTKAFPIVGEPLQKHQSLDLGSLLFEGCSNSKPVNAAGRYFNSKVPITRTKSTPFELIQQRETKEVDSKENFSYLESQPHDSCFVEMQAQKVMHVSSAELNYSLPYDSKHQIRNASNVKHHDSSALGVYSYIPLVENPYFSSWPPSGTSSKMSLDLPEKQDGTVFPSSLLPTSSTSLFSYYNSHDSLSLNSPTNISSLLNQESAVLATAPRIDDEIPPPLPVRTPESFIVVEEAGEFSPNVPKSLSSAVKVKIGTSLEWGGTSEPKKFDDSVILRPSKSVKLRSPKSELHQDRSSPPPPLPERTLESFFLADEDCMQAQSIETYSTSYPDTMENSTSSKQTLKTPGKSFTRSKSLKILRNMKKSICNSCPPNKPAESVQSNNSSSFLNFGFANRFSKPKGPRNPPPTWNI"}, "mPTPB": {"molecular_target": "T2, mPTPB (Mycobacterium tuberculosis, UniProt I6WXK4)", "T2 construct": "The full-length mPTPB with a N-terminal His6-tag was expressed and purified; His6 (N); made in house; host or cells: E. coli BL21/DE3 (pET28b-mPTPB)", "T2 sequence (I6WXK4 1-276)": "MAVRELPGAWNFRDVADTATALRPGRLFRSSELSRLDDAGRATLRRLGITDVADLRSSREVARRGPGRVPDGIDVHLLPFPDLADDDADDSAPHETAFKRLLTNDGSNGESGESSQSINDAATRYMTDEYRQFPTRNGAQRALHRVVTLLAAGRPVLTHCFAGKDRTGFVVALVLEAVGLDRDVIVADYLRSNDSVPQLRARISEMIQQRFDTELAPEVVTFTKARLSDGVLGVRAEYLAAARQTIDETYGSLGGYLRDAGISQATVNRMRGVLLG", "conditions": "for IC50: pNPP substrate, pH 7.0, 25° C., read-out: IC50 (μM) against mPTPB"}, "SHP2-D2C": {"molecular_target": "SHP2-D2C (Homo sapiens, UniProt Q06124)", "sequence (Q06124 224-528 limits assumed)": "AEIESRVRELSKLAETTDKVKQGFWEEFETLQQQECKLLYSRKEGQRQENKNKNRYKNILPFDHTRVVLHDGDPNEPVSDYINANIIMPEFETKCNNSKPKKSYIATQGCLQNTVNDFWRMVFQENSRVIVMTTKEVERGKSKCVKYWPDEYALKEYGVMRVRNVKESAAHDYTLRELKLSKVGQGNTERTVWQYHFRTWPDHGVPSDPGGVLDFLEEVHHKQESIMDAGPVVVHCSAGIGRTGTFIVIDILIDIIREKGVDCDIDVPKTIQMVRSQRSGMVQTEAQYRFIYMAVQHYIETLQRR"}, "PTP1B": {"molecular_target": "T3, PTP1B (Homo sapiens, UniProt P18031)", "T3 sequence (P18031 1-435)": "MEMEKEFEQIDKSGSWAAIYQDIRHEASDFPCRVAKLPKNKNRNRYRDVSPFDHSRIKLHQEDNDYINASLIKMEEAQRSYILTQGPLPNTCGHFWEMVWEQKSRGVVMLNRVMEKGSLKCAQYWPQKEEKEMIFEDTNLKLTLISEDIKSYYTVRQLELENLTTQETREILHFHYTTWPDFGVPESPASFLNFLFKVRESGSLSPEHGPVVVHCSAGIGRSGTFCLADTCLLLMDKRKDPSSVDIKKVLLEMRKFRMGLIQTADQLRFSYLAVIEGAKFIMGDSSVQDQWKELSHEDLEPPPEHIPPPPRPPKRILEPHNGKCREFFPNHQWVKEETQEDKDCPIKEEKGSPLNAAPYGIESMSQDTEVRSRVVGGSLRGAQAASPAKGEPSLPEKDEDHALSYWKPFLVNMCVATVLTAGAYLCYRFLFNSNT"}}}
{"smiles": "O=C(O)COc1cccc(-c2oc3cc(O)c(C(=O)O)cc3c2C#Cc2cccc(Cl)c2)c1", "note": "[49 (Core 74)]", "values": [{"measurement": "loss of activity compare with compound 133 for Lyp", "setting": "Lyp", "value": 15, "unit": "fold"}, {"measurement": "IC50", "setting": "mPTPB", "value": 0.076, "unit": "µM"}]}
{"smiles": "O=C(O)COc1ccc(-c2oc3cc(O)c(C(=O)O)cc3c2C#Cc2cccc(Cl)c2)cc1", "note": "[50 (Core 75)]", "values": [{"measurement": "IC50", "setting": "Lyp", "value": "7.6 ± 0.4", "unit": "µM"}, {"measurement": "loss of activity compare with compound 133 for Lyp", "setting": "Lyp", "value": 7.8, "unit": "fold"}, {"measurement": "IC50", "setting": "mPTPB", "value": 0.101, "unit": "µM"}]}
{"smiles": "Cn1c(-c2cccc(O)c2)c(I)c2cc(C(=O)O)c(O)cc21", "note": "[Compound 207k, 6-hydroxy-2-(3-hydroxyphenyl)-3-iodo-1-methyl-1H-indole-5-carboxylic acid]", "values": [{"measurement": "IC50", "setting": "mPTPB", "value": "18 ± 1", "unit": "µM"}]}
{"smiles": "Cn1c(-c2cccc(C(F)(F)F)c2)c(I)c2cc(C(=O)O)c(O)cc21", "note": "[Compound 207b, 6-hydroxy-3-iodo-1-methyl-2-(3-(trifluoromethyl)phenyl)-1H-indole-5-carboxylic acid]", "values": [{"measurement": "IC50", "setting": "mPTPB", "value": "2.2 ± 0.2", "unit": "µM"}]}
{"smiles": "Cn1c(-c2ccc(F)cc2)c(I)c2cc(C(=O)O)c(O)cc21", "note": "[Compound 207i, 2-(4-fluorophenyl)-6-hydroxy-3-iodo-1-methyl-1H-indole-5-carboxylic acid]", "values": [{"measurement": "IC50", "setting": "mPTPB", "value": "12 ± 2", "unit": "µM"}]}
{"smiles": "Cn1c(-c2ccccc2C(F)(F)F)c(C#Cc2cc(F)cc(F)c2)c2cc(C(=O)O)c(O)cc21", "note": "[Compound 209a, 3-((3,5-difluorophenyl)ethynyl)-6-hydroxy-1-methyl-2-(2-(trifluoromethyl)phenyl)-1H-indole-5-carboxylic acid]", "values": [{"measurement": "selectivity for mPTPB towards Shpt", "setting": "SHP2-D2C", "value": 30, "unit": "fold"}, {"measurement": "selectivity for mPTPB towards PTP1B", "setting": "PTP1B", "value": 100, "unit": "fold"}, {"measurement": "potency against mPTPB relative to mother compound 207a", "setting": "mPTPB", "value": 5, "unit": "times"}, {"measurement": "IC50", "setting": "mPTPB", "value": "0.21 ± 0.05", "unit": "µM"}]}
{"smiles": "O=C(O)c1cc2c(C=Cc3cc(F)cc(F)c3)c(-c3ccccc3)oc2cc1O", "note": "[43 (L01Z25)]", "values": [{"measurement": "IC50", "setting": "mPTPB", "value": 1.2, "unit": "µM"}]}
{"smiles": "O=C(O)c1cc2c(C#Cc3ccsc3)c(-c3ccc(OC(F)(F)F)cc3)oc2cc1O", "note": "[38 (L73Z03)]", "values": [{"measurement": "IC50", "setting": "mPTPB", "value": 0.35, "unit": "µM"}]}
{"smiles": "Cn1c(-c2ccccc2C(F)(F)F)c(C(=O)CCNC(=O)c2ccc3nc(-c4ccccc4Br)[nH]c3c2)c2cc(C(=O)O)c(O)cc21", "note": "[Compound 213d, 3-(3-(2-(2-bromophenyl)-1H-benzo[d]imidazole-6-carboxamido)propanoyl)-6-hydroxy-1-methyl-2-(2-(trifluoromethyl)phenyl)-1H-indole-5-carboxylic acid]", "values": [{"measurement": "In % @ 1 μM (mPTPB)", "setting": "mPTPB; 1 μM, library 13 screened in situ", "value": 10, "unit": "%"}, {"measurement": "IC50", "setting": "mPTPB", "value": "5.2 ± 0.2", "unit": "µM"}]}
{"smiles": "Cn1c(-c2ccccc2C(F)(F)F)c(C#Cc2ccc(OC(F)(F)F)cc2)c2cc(C(=O)O)c(O)cc21", "note": "[Compound 209f, 6-hydroxy-1-methyl-3-((4-(trifluoromethoxy)phenyl)ethynyl)-2-(2-(trifluoromethyl)phenyl)-1H-indole-5-carboxylic acid]", "values": [{"measurement": "IC50", "setting": "mPTPB", "value": "0.85 ± 0.2", "unit": "µM"}]}
{"smiles": "Cn1c(-c2ccccc2C(F)(F)F)c(C#Cc2cccc(C(F)(F)F)c2)c2cc(C(=O)O)c(O)cc21", "note": "[Compound 209b, 6-hydroxy-1-methyl-2-(2-(trifluoromethyl)phenyl)-3-((3-(trifluoromethyl)phenyl)ethynyl)-1H-indole-5-carboxylic acid]", "values": [{"measurement": "IC50", "setting": "mPTPB", "value": "0.23 ± 0.04", "unit": "µM"}]}
{"smiles": "Cn1c(-c2ccccc2)c(I)c2cc(C(=O)O)c(O)cc21", "note": "[Compound 207g, 6-hydroxy-3-iodo-1-methyl-2-phenyl-1H-indole-5-carboxylic acid]", "values": [{"measurement": "IC50", "setting": "mPTPB", "value": "11 ± 1", "unit": "µM"}]}
{"smiles": "Cn1c(-c2ccc(C(F)(F)F)cc2)c(I)c2cc(C(=O)O)c(O)cc21", "note": "[Compound 207f, 6-hydroxy-3-iodo-1-methyl-2-(4-(trifluoromethyl)phenyl)-1H-indole-5-carboxylic acid]", "values": [{"measurement": "IC50", "setting": "mPTPB", "value": "7 ± 1", "unit": "µM"}]}
{"smiles": "Cn1c(-c2ccccc2C(F)(F)F)c(C#Cc2ccc(C(F)(F)F)cc2)c2cc(C(=O)O)c(O)cc21", "note": "[Compound 209e, 6-hydroxy-1-methyl-2-(2-(trifluoromethyl)phenyl)-3-((4-(trifluoromethyl)phenyl)ethynyl)-1H-indole-5-carboxylic acid]", "values": [{"measurement": "IC50", "setting": "mPTPB", "value": "0.6 ± 0.1", "unit": "µM"}]}
{"smiles": "C#Cc1c(-c2cccc(Cl)c2)oc2cc(O)c(C(=O)O)cc12", "note": "[42 (Core72)]", "values": [{"measurement": "IC50", "setting": "mPTPB", "value": 3.1, "unit": "µM"}]}
{"smiles": "O=C(O)COc1cccc(C#Cc2c(-c3ccc(OC(F)(F)F)cc3)oc3cc(O)c(C(=O)O)cc23)c1", "note": "[39 (L73Z05)]", "values": [{"measurement": "IC50", "setting": "mPTPB", "value": 0.19, "unit": "µM"}]}
